Experimental data taken from US20100034739A1, “Fungus-Specific Imaging Agents” (priority 2006, published 2010).
Positions of bridges follow the written chain, without caps; N, C: chain ends. No end group written: not given here. *: point of attachment. DOTA = O=C(O)CN1CCN(CC(=O)O)CCN(CC(=O)*)CCN(CC(=O)O)CC1

Key:
[1] = system: acute pulmonary aspergillosis; experiment: μ-PET imaging of mice with acute pulmonary aspergillosis and normal mice; type: in vivo; settings: μ-PET at 30 and 90 minutes, i.v. approx. 200 μCi per mouse, not seen in normal mice
Protocol: FIG. 5A illustrates μ-PET images of mice injected with the ^68Ga-labeled peptide of FIG. 4. […] Arrows indicate accumulated imaging agent.
Mice weighing approximately 20 g each were injected intravenously with the imaging agent of FIG. 4 to provide radioisotope at a level of approximately 200 μCi per mouse. μ-PET imaging was performed at 30 and 90 minutes after injection. Control mice had no fungal infection, while infected mice had acute pulmonary aspergillosis. μ-PET images of normal and infected mice are shown in FIG. 5A. Arrows in FIG. 5A indicate the accumulated radiotracer.

[2] = system: Aspergillus; experiment: autoradiography and GMS histology of excised lung slices; type: in vivo, mice
Protocol: FIG. 5B illustrates autoradiography of the lungs of mice injected with the ^68Ga-labeled peptide of FIG. 4.
FIG. 6 illustrates histology and autoradiography of excised lung tissue from a mouse injected with Ga-68-labeled peptide of FIG. 4. The mouse had acute pulmonary aspergillosis.
Lungs were removed from the mice after the 90 minute imaging session and snap frozen, then cut into 20 μm slices. These slices were air-dried and exposed to a phosphors screen. The screen was exposed for 10 minutes.
To confirm that tissue labeled with the imaging agent was actually infected with Aspergillus, histology of lung tissue labeled by the imaging agent in an infected mouse was performed. The corresponding gamma scintogram and histology data are show in FIG. 6. […] Note the black-stained organisms correlated with distribution of radioactivity in autoradiography (lower left image) of excised lung tissue from a mouse injected with Ga-68-labeled peptide of FIG. 4.

[3] = system: acute pulmonary aspergillosis; settings: i.v. approx. 80 μCi per mouse
Protocol: FIG. 2 illustrates gamma scintography of mice injected with the ^111In-labeled peptide of FIG. 1. […] Arrows indicate radiotracer in the lung.
Gamma scintography was performed at 30 and 120 minutes after injection. […] Experiments were performed 1 to 2 days after infection. The same mouse is shown for each test type at 30 and 120 minutes. Arrows in FIG. 2 indicate the accumulated radiotracer. Radiotracer accumulation in the lungs of the control mouse was not visible at 120 minutes after injection. Increased radiotracer could be seen as little as 5 minutes after injection.

[4] = system: hyphae of Rhizopus; settings: Lionakis et al. 2005; cited from earlier work
[5] = system: hyphae of Aspergillus; settings: Lionakis et al. 2005; cited from earlier work

^68Ga-DOTA-CGGRLGPFC ({DOTA}-CGGRLGPFC; not fully specified (bridges); also: 68Ga chelated by DOTA, cyclic, type of ring bond not given here) [imaging agent of FIG. 4]
radiotracer accumulation in the lungs of infected mice [1]: can be clearly seen
radioactivity in lung slices of the infected mouse ([2]; autoradiography of 20 μm slices, lungs removed after the 90 minute imaging session, infected mouse): Heterogeneous distribution of radioactivity
radioactivity in lung slices of the normal mouse ([2]; autoradiography of 20 μm slices, lungs removed after the 90 minute imaging session, normal mouse): Little radioactivity
relation of GMS-stained Aspergillus organisms to distribution of radioactivity in autoradiography ([2]; excised lung tissue of an infected mouse, FIG. 6): correlated

^111In-DTPA-Benzyl-NH-Succinic Acid-CGGRLGPFC [imaging agent of FIG. 1]
radiotracer accumulation in the lungs of the control mouse ([3]; control mouse without fungal infection, 120 minutes after injection): not visible
time after injection at which increased radiotracer could be seen ([3]; gamma scintography): 5 min

c(CGGRLGPFC) (disulfide 1-9 (inferred))
binding in vitro to the hyphae of Rhizopus [4]: bind in vitro
binding in vitro to the hyphae of Aspergillus [5]: bind in vitro

c(CWGHSRDEC) (disulfide 1-9 (inferred))
binding in vitro to the hyphae of Rhizopus [4]: bind in vitro
binding in vitro to the hyphae of Aspergillus [5]: bind in vitro
